According to patent US8895733B2 (Novartis AG, priority 2010, dated 2014):

Target: T1, Nav 1.7 (Homo sapiens, UniProt Q15858)
T1 construct: expressed in transfected cells
Assay: Whole-cell voltage clamp electrophysiology, automated patch clamp (marker c in Table of Examples)
Assay type: cell-based
Settings: marker c: Automated patch clamp data; read-out: Nav 1.7 activity
How it was run: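 Human NaV1.7 currents were recorded by whole-cell automated patch clamp, on IonWorks Quattro or another automated platform, typically in perforated-patch configuration. The stimulus protocol was designed to probe block mainly of the inactivated state, with a typical sweep stepping from about −65 mV holding to −10 mV, then −100 mV.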

T1 sequence (Q15858 whole entry): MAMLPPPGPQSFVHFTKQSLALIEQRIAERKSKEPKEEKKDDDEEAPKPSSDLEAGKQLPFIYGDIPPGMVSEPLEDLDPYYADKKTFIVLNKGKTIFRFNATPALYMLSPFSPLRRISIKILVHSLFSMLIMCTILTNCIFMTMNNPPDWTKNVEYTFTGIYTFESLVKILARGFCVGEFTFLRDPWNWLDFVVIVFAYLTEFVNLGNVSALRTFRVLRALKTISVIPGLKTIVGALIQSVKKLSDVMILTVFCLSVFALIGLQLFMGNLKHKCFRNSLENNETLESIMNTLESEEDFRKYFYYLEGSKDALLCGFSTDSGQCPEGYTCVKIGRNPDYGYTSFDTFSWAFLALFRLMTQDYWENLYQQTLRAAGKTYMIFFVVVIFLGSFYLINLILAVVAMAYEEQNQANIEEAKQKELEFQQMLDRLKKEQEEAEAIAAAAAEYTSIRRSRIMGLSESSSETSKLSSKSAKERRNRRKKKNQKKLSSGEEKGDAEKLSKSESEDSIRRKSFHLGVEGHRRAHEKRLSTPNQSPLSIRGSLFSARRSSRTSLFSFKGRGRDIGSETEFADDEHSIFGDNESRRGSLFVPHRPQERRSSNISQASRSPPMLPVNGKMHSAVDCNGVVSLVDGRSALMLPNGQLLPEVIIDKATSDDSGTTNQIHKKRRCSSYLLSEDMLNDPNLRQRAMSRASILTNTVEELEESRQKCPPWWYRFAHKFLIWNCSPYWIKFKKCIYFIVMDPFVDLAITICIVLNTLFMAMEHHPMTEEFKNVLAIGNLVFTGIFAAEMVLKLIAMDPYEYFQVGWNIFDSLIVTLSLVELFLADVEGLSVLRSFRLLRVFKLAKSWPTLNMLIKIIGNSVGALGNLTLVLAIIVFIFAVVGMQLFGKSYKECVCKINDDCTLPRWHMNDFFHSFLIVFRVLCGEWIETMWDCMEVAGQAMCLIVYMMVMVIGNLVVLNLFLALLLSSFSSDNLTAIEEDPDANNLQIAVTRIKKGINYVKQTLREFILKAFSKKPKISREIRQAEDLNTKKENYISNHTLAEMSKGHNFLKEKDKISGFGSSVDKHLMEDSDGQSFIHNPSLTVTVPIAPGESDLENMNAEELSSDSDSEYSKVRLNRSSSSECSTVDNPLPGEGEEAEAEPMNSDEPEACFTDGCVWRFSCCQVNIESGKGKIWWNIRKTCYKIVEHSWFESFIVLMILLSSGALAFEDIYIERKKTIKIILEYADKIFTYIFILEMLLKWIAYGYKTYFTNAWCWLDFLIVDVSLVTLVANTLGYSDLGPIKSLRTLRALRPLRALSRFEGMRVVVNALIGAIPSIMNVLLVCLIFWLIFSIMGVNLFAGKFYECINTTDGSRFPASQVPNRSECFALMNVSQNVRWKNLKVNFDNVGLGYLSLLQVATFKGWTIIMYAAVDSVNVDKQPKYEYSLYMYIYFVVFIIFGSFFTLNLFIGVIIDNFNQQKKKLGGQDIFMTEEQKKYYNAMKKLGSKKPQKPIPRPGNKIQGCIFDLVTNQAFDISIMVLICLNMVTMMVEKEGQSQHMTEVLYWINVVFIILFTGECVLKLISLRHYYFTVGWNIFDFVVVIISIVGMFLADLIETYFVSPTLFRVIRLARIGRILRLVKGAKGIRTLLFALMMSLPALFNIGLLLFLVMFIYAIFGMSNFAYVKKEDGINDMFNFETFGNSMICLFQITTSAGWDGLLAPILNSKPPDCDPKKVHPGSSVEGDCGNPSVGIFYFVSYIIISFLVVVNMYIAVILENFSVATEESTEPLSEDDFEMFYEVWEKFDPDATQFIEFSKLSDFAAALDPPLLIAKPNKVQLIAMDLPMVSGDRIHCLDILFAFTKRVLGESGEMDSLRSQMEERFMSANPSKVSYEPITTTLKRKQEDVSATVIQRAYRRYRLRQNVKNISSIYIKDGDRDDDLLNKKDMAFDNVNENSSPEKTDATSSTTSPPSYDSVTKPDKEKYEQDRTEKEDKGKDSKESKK

Structure (SMILES)	IC50 [nM]
CN(c1ccccc1)c1nc(N)nc(-c2noc(C3CCN(S(C)(=O)=O)CC3)n2)n1 [Example 160, 6-[5-(1-methanesulfonylpiperidin-4-yl)-1,2,4-oxadiazol-3-yl]-2-N-methyl-2-N-phenyl-1,3,5-triazine-2,4-diamine]	2730
CC(C)C(=O)N1CCC(c2nc(-c3nc(N)nc(N(C)c4ccccc4)n3)no2)CC1 [Example 161, 1-[4-(3-{4-Amino-6-[methyl(phenyl)amino]-1,3,5-triazin-2-yl}-1,2,4-oxadiazol-5-yl)piperidin-1-yl]-2-methylpropan-1-one]	8500
CC(=O)N1CCC(c2nc(-c3nc(N)nc(N(C)c4ccccc4)n3)no2)CC1 [Example 162, 1-[4-(3-{4-amino-6-[methyl(phenyl)amino]-1,3,5-triazin-2-yl}-1,2,4-oxadiazol-5-yl)piperidin-1-yl]ethan-1-one]	8980
CN(c1ccccc1)c1nc(N)nc(-c2noc(C3CCN(CCC(F)(F)F)CC3)n2)n1 [Example 163, 2-N-methyl-2-N-phenyl-6-{5-[1-(3,3,3-trifluoropropyl)piperidin-4-yl]-1,2,4-oxadiazol-3-yl}-1,3,5-triazine-2,4-diamine]	559
CN(c1ccccc1)c1nc(N)nc(-c2noc(C3CCN(C(=O)CC(F)(F)F)CC3)n2)n1 [Example 164, 1-[4-(3-{4-amino-6-[methyl(phenyl)amino]-1,3,5-triazin-2-yl}-1,2,4-oxadiazol-5-yl)piperidin-1-yl]-3,3,3-trifluoropropan-1-one]	9040
COCC1CCN(c2nc(-c3nc(N)nc(N(C)c4ccccc4)n3)no2)CC1 [Example 165, 6-{5-[4-(methoxymethyl)piperidin-1-yl]-1,2,4-oxadiazol-3-yl}-2-N-methyl-2-N-phenyl-1,3,5-triazine-2,4-diamine]	7690
CN(c1ccccc1)c1nc(N)nc(-c2noc(N3CCC(COc4ccccc4)CC3)n2)n1 [Example 166, 2-N-methyl-6-{5-[4-(phenoxymethyl)piperidin-1-yl]-1,2,4-oxadiazol-3-yl}-2-N-phenyl-1,3,5-triazine-2,4-diamine]	60
CCCS(=O)(=O)N1CCC(c2nc(-c3nc(N)nc(N(C)c4ccccc4)n3)no2)CC1 [Example 168, 2-N-methyl-2-N-phenyl-6-{5-[1 - (propane-1-sulfonyl)piperidin-4-yl]-1,2,4-oxadiazol-3-yl}-1,3,5-triazine-2,4-diamine]	1470
CN(c1ccccc1)c1nc(N)nc(-c2noc(C3CCN(S(=O)(=O)CC(F)(F)F)CC3)n2)n1 [Example 169, 2-N-methyl-2-N-phenyl-6-(5-{1-[(2,2,2-trifluoroethane)sulfonyl]piperidin-4-yl}-1,2,4-oxadiazol-3-yl)-1,3,5-triazine-2,4-diamine]	1030
CCS(=O)(=O)N1CCC(c2nc(-c3nc(N)nc(N(C)c4ccccc4)n3)no2)CC1 [Example 170, 6-{5-[1-(ethanesulfonyl)piperidin-4-yl]-1,2,4-oxadiazol-3-yl}-2-N-methyl-2-N-phenyl-1,3,5-triazine-2,4-diamine]	1880
CC(C)S(=O)(=O)N1CCC(c2nc(-c3nc(N)nc(N(C)c4ccccc4)n3)no2)CC1 [Example 171, 2-N-methyl-2-N-phenyl-6-{5-[1-(propane-2-sulfonyl)piperidin-4-yl]-1,2,4-oxadiazol-3-yl}-1,3,5-triazine-2,4-diamine]	254
CN(c1ccccc1)c1nc(N)nc(-c2noc(C3CCN(S(=O)(=O)c4ccccc4)CC3)n2)n1 [Example 172, 6-{5-[1-(benzenesulfonyl)piperidin-4-yl]-1,2,4-oxadiazol-3-yl}-2-N-methyl-2-N-phenyl-1,3,5-triazine-2,4-diamine]	1080
CN(c1ccccc1)c1nc(N)nc(-c2noc(C3CCN(Cc4ccccc4)CC3)n2)n1 [Example 173, 6-[5-(1-Benzylpiperidin-4-yl)-1,2,4-oxadiazol-3-yl]-2-N-methyl-2-N-phenyl-1,3,5-triazine-2,4-diamine]	1000
Nc1nc(Nc2ccccc2)nc(-c2noc(N3CCC(COCC(F)(F)F)CC3)n2)n1 [Example 174, 2-N-Phenyl-6-(5-{4-[(2,2,2-trifluoroethoxy)methyl]piperidin-1-yl}-1,2,4-oxadiazol-3-yl)-1,3,5-triazine-2,4-diamine]	340
CN(c1ccccc1)c1nc(N)nc(-c2noc(N3CCC(CSCC(F)(F)F)CC3)n2)n1 [Example 175, 2-N-methyl-2-N-phenyl-6-[5-(4-{[(2,2,2-trifluoroethyl)sulfanyl]methyl}piperidin-1-yl)-1,2,4-oxadiazol-3-yl]-1,3,5-triazine-2,4-diamine]	20
CN(c1ccccc1)c1nc(N)nc(-c2noc(N3CCC(CSc4ccccc4)CC3)n2)n1 [Example 176, 2-N-methyl-2-N-phenyl-6-(5-{4-[(phenylsulfanyl)methyl]piperidin-1-yl}-1,2,4-oxadiazol-3-yl)-1,3,5-triazine-2,4-diamine]	223
CC(C)SCC1CCN(c2nc(-c3nc(N)nc(N(C)c4ccccc4)n3)no2)CC1 [Example 177, 2-N-methyl-2-N-phenyl-6-(5-{4-[(propan-2-ylsulfanyl)methyl]piperidin-1-yl}-1,2,4-oxadiazol-3-yl)-1,3,5-triazine-2,4-diamine]	306

Structure (SMILES)	IC50 [nM]
CN(c1ccccc1)c1nc(N)nc(-c2noc(N3CCC(CS(=O)(=O)CC(F)(F)F)CC3)n2)n1 [Example 178, 2-N-Methyl-2-N-phenyl-6-[5-(4-{[(2,2,2-trifluoroethane)sulfonyl]methyl}piperidin-1-yl)-1,2,4-oxadiazol-3-yl]-1,3,5-triazine-2,4-diamine]	2650
CN(c1ccccc1)c1nc(N)nc(-c2noc(N3CCC(CS(=O)(=O)c4ccccc4)CC3)n2)n1 [Example 179, 6-(5-{4-[(benzenesulfonyl)methyl]piperidin-1-yl}-1,2,4-oxadiazol-3-yl)-2-N-methyl-2-N-phenyl-1,3,5-triazine-2,4-diamine]	810
CC(C)[S+]([O-])CC1CCN(c2nc(-c3nc(N)nc(N(C)c4ccccc4)n3)no2)CC1 (stereo not drawn) [Example 180, 2-N-methyl-2-N-phenyl-6-(5-{4-[(propane-2-sulfinyl)methyl]piperidin-1-yl}-1,2,4-oxadiazol-3-yl)-1,3,5-triazine-2,4-diamine]	> 7710
CC(C)S(=O)(=O)CC1CCN(c2nc(-c3nc(N)nc(N(C)c4ccccc4)n3)no2)CC1 [Example 181, 2-N-methyl-2-N-phenyl-6-(5-{4-[(propane-2-sulfonyl)methyl]piperidin-1-yl}-1,2,4-oxadiazol-3-yl)-1,3,5-triazine-2,4-diamine]	9080
COC(=O)c1cccc(Nc2nc(N)nc(-c3noc(-c4ccc(OCC(F)(F)F)nc4)n3)n2)c1 [Example 182, methyl 3-[(4-amino-6-{5-[6-(2,2,2-trifluoroethoxy)pyridin-3-yl]-1,2,4-oxadiazol-3-yl}-1,3,5-triazin-2-yl)amino]benzoate]	8690
CCOc1ccccc1-c1nc(-c2nc(N)nc(N(C)c3cccc(C)c3)n2)no1 [Example 183, 6-[5-(2-ethoxyphenyl)-1,2,4-oxadiazol-3-yl]-2-N-methyl-2-N-(3-methylphenyl)-1,3,5-triazine-2,4-diamine]	67
COc1ccc(-c2nc(-c3nc(N)nc(N(C)c4cccc(C)c4)n3)no2)cc1 [Example 184, 6-[5-(4-methoxyphenyl)-1,2,4-oxadiazol-3-yl]-2-N-methyl-2-N-(3-methylphenyl)-1,3,5-triazine-2,4-diamine]	62
COc1cccc(F)c1-c1nc(-c2nc(N)nc(N(C)c3cccc(C)c3)n2)no1 [Example 185, 6-[5-(2-fluoro-6-methoxyphenyl)-1,2,4-oxadiazol-3-yl]-2-N-methyl-2-N-(3-methylphenyl)-1,3,5-triazine-2,4-diamine]	144
COc1ccc(F)cc1-c1nc(-c2nc(N)nc(N(C)c3cccc(C)c3)n2)no1 [Example 186]	87
COc1cc(F)ccc1-c1nc(-c2nc(N)nc(N(C)c3cccc(C)c3)n2)no1 [Example 187, 6-[5-(4-fluoro-2-methoxyphenyl)-1,2,4-oxadiazol-3-yl]-2-N-methyl-2-N-(3-methylphenyl)-1,3,5-triazine-2,4-diamine]	458
COc1ccc(-c2nc(-c3nc(N)nc(N(C)c4cccc(C)c4)n3)no2)c(OC)c1 [Example 188, 6-[5-(2,4-dimethoxyphenyl)-1,2,4-oxadiazol-3-yl]-2-N-methyl-2-N-(3-methylphenyl)-1,3,5-triazine-2,4-diamine]	7630
CS(=O)(=O)c1cccc(Nc2nc(N)nc(-c3noc(-c4ccc(OCC(F)(F)F)nc4)n3)n2)c1 [Example 189, 2-N-(3-methanesulfonylphenyl)-6-{5-[6-(2,2,2-trifluoroethoxy)pyridin-3-yl]-1,2,4-oxadiazol-3-yl}-1,3,5-triazine-2,4-diamine]	287
CCN(c1ccccc1)c1nc(N)nc(-c2noc(-c3ccc(OC)cc3)n2)n1 [Example 190, 2-N-ethyl-6-[5-(4-methoxyphenyl)-1,2,4-oxadiazol-3-yl]-2-N-phenyl-1,3,5-triazine-2,4-diamine]	106
CCN(c1ccccc1)c1nc(N)nc(-c2noc(-c3c(F)cccc3OC)n2)n1 [Example 191, 2-N-ethyl-6-[5-(2-fluoro-6-methoxyphenyl)-1,2,4-oxadiazol-3-yl]-2-N-phenyl-1,3,5-triazine-2,4-diamine]	67
CCN(c1ccccc1)c1nc(N)nc(-c2noc(-c3ccccc3Cl)n2)n1 [Example 192, 6-[5-(2-chlorophenyl)-1,2,4-oxadiazol-3-yl]-2-N-ethyl-2-N-phenyl-1,3,5-triazine-2,4-diamine]	123
CCN(c1ccccc1)c1nc(N)nc(-c2noc(-c3ccc(F)cc3Cl)n2)n1 [Example 193, 6-[5-(2-chloro-4-fluorophenyl)-1,2,4-oxadiazol-3-yl]-2-N-ethyl-2-N-phenyl-1,3,5-triazine-2,4-diamine]	83
